ChEMBL document CHEMBL1145373, “Syntheses of potent, selective, and orally bioavailable indazole-pyridine series of protein kinase B/Akt inhibitors with reduced hypotension” (J Med Chem, 2007)

Assays:
[1] = Cytotoxicity against human MIA PaCa cells by MTT assay; format: functional, cell-based
[2] = molecular target: cAMP-dependent protein kinase (PKA) (Homo sapiens, UniProt P22694+P17612+P22612); experiment: Inhibition of PKA; format: protein assay
[3] = Toxicity assessed as prolongation of action potential duration in dog purkinje fibres at 20 uM; format: tissue-based, Canis lupus familiaris, Purkinje fiber
[4] = Half life in mouse at 10 mg/kg, po; format: ADME, organism-based; design: dose 10 mg/kg, route oral; conditions: in vivo
[5] = AUC in mouse at 10 mg/kg, po; format: ADME, organism-based; design: dose 10 mg/kg, route oral; conditions: plasma
[6] = Oral bioavailability in mouse at 10 mg/kg, po; format: ADME, organism-based; conditions: in vivo
[7] = Hypotensive effect in dog femoral artery by femoral artery relaxation assay; format: functional, tissue-based, Canis lupus familiaris
[8] = Oral bioavailability in orally dosed rat; format: ADME, organism-based; conditions: in vivo
[9] = Oral bioavailability in dog at 2.5 mg/kg, po; format: ADME, organism-based, Canis lupus familiaris; conditions: in vivo
[10] = Half life in mouse at 3 mg/kg, iv; format: ADME, organism-based; design: dose 3 mg/kg, route intravenous; conditions: in vivo
[11] = molecular target: Voltage-gated inwardly rectifying potassium channel KCNH2 (Homo sapiens, UniProt Q12809); experiment: Inhibition of hERG by patch clamp assay; format: toxicity
Sequence of Voltage-gated inwardly rectifying potassium channel KCNH2 (Q12809 whole entry): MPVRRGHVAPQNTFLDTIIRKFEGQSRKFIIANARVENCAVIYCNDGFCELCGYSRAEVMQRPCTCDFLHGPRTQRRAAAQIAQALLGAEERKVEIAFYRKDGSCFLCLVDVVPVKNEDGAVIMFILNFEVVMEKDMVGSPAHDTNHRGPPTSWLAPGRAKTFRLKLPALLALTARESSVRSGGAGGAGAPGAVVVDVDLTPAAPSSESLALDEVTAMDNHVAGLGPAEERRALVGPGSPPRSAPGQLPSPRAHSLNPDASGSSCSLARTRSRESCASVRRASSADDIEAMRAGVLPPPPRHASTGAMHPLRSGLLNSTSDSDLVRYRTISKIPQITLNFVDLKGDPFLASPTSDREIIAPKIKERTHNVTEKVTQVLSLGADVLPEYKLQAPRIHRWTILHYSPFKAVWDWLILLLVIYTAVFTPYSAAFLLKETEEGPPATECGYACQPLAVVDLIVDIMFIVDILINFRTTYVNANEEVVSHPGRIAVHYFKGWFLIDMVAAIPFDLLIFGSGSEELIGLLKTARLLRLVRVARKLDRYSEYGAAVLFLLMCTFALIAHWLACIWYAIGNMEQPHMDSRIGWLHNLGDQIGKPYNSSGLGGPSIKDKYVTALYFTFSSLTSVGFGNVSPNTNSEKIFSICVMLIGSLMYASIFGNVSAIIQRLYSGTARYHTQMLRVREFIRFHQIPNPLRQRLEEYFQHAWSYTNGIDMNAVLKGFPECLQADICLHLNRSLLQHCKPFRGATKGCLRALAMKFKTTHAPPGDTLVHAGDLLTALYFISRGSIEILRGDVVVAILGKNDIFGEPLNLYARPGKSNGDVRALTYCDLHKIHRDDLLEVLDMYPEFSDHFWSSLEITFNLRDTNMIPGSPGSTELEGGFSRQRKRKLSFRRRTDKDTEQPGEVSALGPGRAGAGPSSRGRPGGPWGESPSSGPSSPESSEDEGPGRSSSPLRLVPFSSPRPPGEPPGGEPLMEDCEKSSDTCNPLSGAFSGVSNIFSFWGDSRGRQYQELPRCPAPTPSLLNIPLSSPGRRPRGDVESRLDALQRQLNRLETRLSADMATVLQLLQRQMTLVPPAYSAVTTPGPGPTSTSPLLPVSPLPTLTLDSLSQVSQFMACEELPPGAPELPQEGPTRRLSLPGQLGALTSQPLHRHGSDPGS

Mus musculus = experiment: Toxicity assessed as decrease in MAP in mouse at 150 mg/kg, po; format: organism-based; design: dose 150 mg/kg, route oral; conditions: in vivo
Canis familiaris [12] = experiment: Cardiovascular toxicity assessed as induction of acute hypotension in dog at 25 mg/kg, iv by femoral artery relaxation assay; format: organism-based, Canis lupus familiaris; design: dose 25 mg/kg, route intravenous; conditions: in vivo
Canis familiaris [13] = experiment: Toxicity assessed as decrease in MAP in dog infused at 0.48 mg/kg/min; format: organism-based, Canis lupus familiaris; conditions: in vivo

SMILES	EC50 [1] [nM]	also measured
Cc1n[nH]c2ccc(-c3cncc(OC[C@@H](N)Cc4ccccc4OC(F)(F)F)c3)cc12	230	
COc1ccc(F)cc1C[C@H](N)COc1cncc(-c2ccc3[nH]nc(C)c3c2)c1	230	
Cc1n[nH]c2ccc(-c3cncc(OC[C@@H](N)Cc4cccc(C(F)(F)F)c4)c3)cc12	600	IC50 [2]: 5 nM
Cc1n[nH]c2ccc(-c3cncc(OC[C@@H](N)Cc4ccc(F)c(C(F)(F)F)c4)c3)cc12	600	
Cc1n[nH]c2ccc(-c3cncc(OC[C@@H](N)Cc4ccc5c(c4)OC(F)(F)C(F)(F)O5)c3)cc12	3700	
Cc1n[nH]c2ccc(-c3cncc(OC[C@@H](N)Cc4cccc(OCC5CCNCC5)c4)c3)cc12	250	
Cc1n[nH]c2ccc(-c3cncc(OC[C@@H](N)Cc4cccc(OCC5CCCCC5)c4)c3)cc12	16500	
Cc1n[nH]c2ccc(-c3cncc(OC[C@@H](N)Cc4cccc(OCC5CCN(C)CC5)c4)c3)cc12	1250	
Cc1n[nH]c2ccc(-c3cncc(OC[C@@H](N)Cc4cccc(OCCN)c4)c3)cc12	4800	
N[C@H](COc1cncc(-c2cc3cn[nH]c3cn2)c1)Cc1cccc(C(F)(F)F)c1	2390	IC50 [2]: 78 nM
Cc1n[nH]c2cnc(-c3cncc(OC[C@@H](N)Cc4cccc(C(F)(F)F)c4)c3)cc12	370	Activity [3]: -4%; half-life [4]: 110 min; IC50 [2]: 13 nM; AUC [5]: 1.7 µM·h; bioavailability [6]: 25%
Cc1cc(C[C@H](N)COc2cncc(-c3ccc4[nH]nc(C)c4c3)c2)ccc1Br	1260	
Cc1ccc(C[C@H](N)COc2cncc(-c3ccc4[nH]nc(C)c4c3)c2)cc1F	330	
Cc1cc(C)c(C[C@H](N)COc2cncc(-c3ccc4[nH]nc(C)c4c3)c2)c(C)c1	1610	
Cc1n[nH]c2ccc(-c3cncc(OC[C@@H](N)Cc4cccc(OC(F)(F)F)c4)c3)cc12	830	
Cc1n[nH]c2ccc(-c3cncc(OC[C@@H](N)Cc4cc(C(F)(F)F)ccc4F)c3)cc12	970	
Cc1n[nH]c2ccc(-c3cncc(OC[C@@H](N)Cc4ccc(C(F)(F)F)cc4F)c3)cc12	2900	
Cc1n[nH]c2ccc(-c3cncc(OC[C@@H](N)Cc4ccc(OC(F)(F)F)cc4)c3)cc12	1700	
Cc1n[nH]c2ccc(-c3cncc(OC[C@@H](N)Cc4ccc5c(c4)OCO5)c3)cc12	580	
Cc1n[nH]c2ccc(-c3cncc(OC[C@@H](N)Cc4cccc5c4OC(F)(F)O5)c3)cc12	680	
Cc1n[nH]c2ccc(-c3cncc(OC[C@@H](N)Cc4ccc(Br)cc4F)c3)cc12	900	
Cc1n[nH]c2ccc(-c3cncc(OC[C@@H](N)Cc4ccc(Br)c(F)c4)c3)cc12	430	
Cc1ccc(F)cc1C[C@H](N)COc1cncc(-c2ccc3[nH]nc(C)c3c2)c1	240	
Cc1n[nH]c2ccc(-c3cncc(OC[C@@H](N)Cc4cccc(F)c4)c3)cc12	260	
Cc1n[nH]c2ccc(-c3cncc(OC[C@@H](N)Cc4ccc(F)cc4F)c3)cc12	930	
Cc1n[nH]c2ccc(-c3cncc(OC[C@@H](N)Cc4cccc(I)c4)c3)cc12	810	

SMILES	EC50 [1] [nM]	also measured
Cc1n[nH]c2ccc(-c3cncc(OC[C@@H](N)Cc4ccc(F)c(F)c4F)c3)cc12	290	
Cc1n[nH]c2ccc(-c3cncc(OC[C@@H](N)Cc4cccc(Cl)c4)c3)cc12	450	
Cc1n[nH]c2ccc(-c3cncc(OC[C@@H](N)Cc4ccc(Cl)cc4)c3)cc12	440	
Cc1n[nH]c2ccc(-c3cncc(OC[C@@H](N)Cc4ccccc4Br)c3)cc12	340	
Cc1n[nH]c2ccc(-c3cncc(OC[C@@H](N)Cc4ccc(Br)cc4)c3)cc12	700	
Cc1n[nH]c2ccc(-c3cncc(OC[C@@H](N)Cc4ccc(Cl)c(F)c4)c3)cc12	270	EC50 [7]: 6 µM; bioavailability [8]: 38%; Activity [3]: -1.3%; half-life [4]: 126 min; AUC [5]: 2.3 µM·h; bioavailability [6]: 84%; bioavailability [9]: 40%
Cc1n[nH]c2ccc(-c3cncc(OC[C@@H](N)Cc4cccc(Cl)c4Cl)c3)cc12	210	
Cc1n[nH]c2ccc(-c3cncc(OC[C@@H](N)Cc4ccc(Cl)c(Cl)c4)c3)cc12	490	
Cc1n[nH]c2ccc(-c3cncc(OC[C@@H](N)Cc4cc(F)cc(C(F)(F)F)c4)c3)cc12	1380	
Cc1n[nH]c2ccc(-c3cncc(OC[C@@H](N)Cc4ccc(C(F)(F)F)c(F)c4)c3)cc12	1430	
Cc1n[nH]c2ccc(-c3cncc(OC[C@@H](N)Cc4ccc(F)c(Cl)c4)c3)cc12	670	
Cc1n[nH]c2ccc(-c3cncc(OC[C@@H](N)Cc4cc(Cl)cc(Cl)c4)c3)cc12	1000	
Cc1cc(F)ccc1C[C@H](N)COc1cncc(-c2ccc3[nH]nc(C)c3c2)c1	340	
Cc1n[nH]c2ccc(-c3cncc(OC[C@@H](N)Cc4ccccc4)c3)cc12	640	Activity [3]: Toxic; half-life [4]: 60 min; AUC [5]: 2 µM·h; half-life [10]: 60 min; IC50 [11]: 13.4 µM; bioavailability [6]: 70%; Activity (Mus musculus): 31 mmHg
Cc1n[nH]c2ccc(-c3cncc(OC[C@@H](N)Cc4cccc(OCCC5CCNCC5)c4)c3)cc12	2740	
N[C@H](COc1cncc(-c2ccc3c(c2)/C(=C/c2ccc[nH]2)C(=O)N3)c1)Cc1ccccc1		EC50 [7]: 354 µM; Activity (Canis familiaris [12]): 30 mmHg; half-life [10]: 30 min; bioavailability [6]: 0%
N[C@H](COc1cncc(-c2cc3c(Cl)n[nH]c3cn2)c1)Cc1cccc(C(F)(F)F)c1	1380	IC50 [2]: 15 nM
Cc1n[nH]c2ccc(-c3cncc(OC[C@@H](N)Cc4ccccc4Cl)c3)cc12	380	
Cc1n[nH]c2ccc(-c3cncc(OC[C@@H](N)Cc4cccc(Br)c4)c3)cc12	370	
Cc1n[nH]c2ccc(-c3cncc(OC[C@@H](N)Cc4cccc(OCCN5CCOCC5)c4)c3)cc12	13000	
Cc1n[nH]c2cnc(-c3cncc(OC[C@@H](N)Cc4cccc(F)c4F)c3)cc12	260	IC50 [2]: 7 nM
Cc1cc(C[C@H](N)COc2cncc(-c3ccc4[nH]nc(C)c4c3)c2)ccc1F	1070	
Cc1n[nH]c2ccc(-c3cncc(OC[C@@H](N)Cc4cccc(F)c4F)c3)cc12	180	IC50 [2]: 9 nM
N[C@H](COc1cncc(-c2ccc3c(c2)/C(=C\c2ccco2)C(=O)N3)c1)Cc1ccccc1 (stereo in doubt)		half-life [10]: 69 min; bioavailability [6]: 0%
Cc1n[nH]c2ccc(-c3cncc(OC[C@@H](N)Cc4c[nH]c5ccccc45)c3)cc12 [A-443654]		Activity [3]: 2.4%; half-life [4]: 36 min; Activity (Canis familiaris [13]): 60 mmHg; half-life [10]: 36 min
